Measured values from PMC4699737, “TrpA1 Regulates Defecation of Food-Borne Pathogens under the Control of the Duox Pathway” (PLoS Genetics, 2016).

What was measured:
Test in all cases: two-electrode voltage clamp, Xenopus oocytes, Hill fit
Type in all cases: cell-based
Conditions in all cases: agonist (activation); -60 mV, pH 7.6; currents normalized to 100 ppm NaOCl, steady state
[1] = biological target: T1, hsTRPA1 (Homo sapiens, UniProt O75762)
T1 construct: gene TRPA1; full-length, cRNA injected in Xenopus laevis oocytes
T1 sequence (O75762 whole entry): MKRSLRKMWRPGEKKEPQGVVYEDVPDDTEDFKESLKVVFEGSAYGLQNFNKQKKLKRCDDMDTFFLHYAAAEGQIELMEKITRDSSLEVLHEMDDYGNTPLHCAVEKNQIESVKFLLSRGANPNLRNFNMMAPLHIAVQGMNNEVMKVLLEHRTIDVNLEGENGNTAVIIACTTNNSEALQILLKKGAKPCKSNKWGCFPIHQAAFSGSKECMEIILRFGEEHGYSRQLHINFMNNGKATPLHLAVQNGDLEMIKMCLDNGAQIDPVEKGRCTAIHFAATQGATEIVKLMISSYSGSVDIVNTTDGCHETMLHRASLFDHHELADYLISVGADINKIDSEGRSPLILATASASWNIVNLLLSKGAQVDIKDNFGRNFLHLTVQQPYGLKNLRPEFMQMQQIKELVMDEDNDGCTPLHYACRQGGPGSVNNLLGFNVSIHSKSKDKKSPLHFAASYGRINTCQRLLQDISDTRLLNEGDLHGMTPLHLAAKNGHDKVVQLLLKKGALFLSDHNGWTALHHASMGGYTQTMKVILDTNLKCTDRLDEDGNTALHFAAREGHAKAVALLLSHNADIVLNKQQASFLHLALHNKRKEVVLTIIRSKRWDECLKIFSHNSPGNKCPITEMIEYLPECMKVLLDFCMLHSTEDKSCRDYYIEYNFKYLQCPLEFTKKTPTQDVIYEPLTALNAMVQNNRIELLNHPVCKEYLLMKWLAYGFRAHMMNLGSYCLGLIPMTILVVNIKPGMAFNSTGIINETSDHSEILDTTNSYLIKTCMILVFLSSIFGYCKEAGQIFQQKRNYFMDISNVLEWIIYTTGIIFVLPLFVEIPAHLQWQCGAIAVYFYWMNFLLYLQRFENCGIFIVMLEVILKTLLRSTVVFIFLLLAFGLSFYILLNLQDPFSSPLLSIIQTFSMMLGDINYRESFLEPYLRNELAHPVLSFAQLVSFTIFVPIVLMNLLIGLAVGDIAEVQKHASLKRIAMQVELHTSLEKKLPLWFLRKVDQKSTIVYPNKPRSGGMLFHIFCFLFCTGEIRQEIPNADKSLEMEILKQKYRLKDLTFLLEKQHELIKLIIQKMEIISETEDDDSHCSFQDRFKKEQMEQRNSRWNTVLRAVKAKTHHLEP

[2] = biological target: T2, TRPA1(B)10a (Drosophila melanogaster, UniProt Q7Z020)
T2 construct: full-length splice isoform, TrpA1 cRNA injected in Xenopus laevis oocytes
T2 sequence (Q7Z020 1-1197): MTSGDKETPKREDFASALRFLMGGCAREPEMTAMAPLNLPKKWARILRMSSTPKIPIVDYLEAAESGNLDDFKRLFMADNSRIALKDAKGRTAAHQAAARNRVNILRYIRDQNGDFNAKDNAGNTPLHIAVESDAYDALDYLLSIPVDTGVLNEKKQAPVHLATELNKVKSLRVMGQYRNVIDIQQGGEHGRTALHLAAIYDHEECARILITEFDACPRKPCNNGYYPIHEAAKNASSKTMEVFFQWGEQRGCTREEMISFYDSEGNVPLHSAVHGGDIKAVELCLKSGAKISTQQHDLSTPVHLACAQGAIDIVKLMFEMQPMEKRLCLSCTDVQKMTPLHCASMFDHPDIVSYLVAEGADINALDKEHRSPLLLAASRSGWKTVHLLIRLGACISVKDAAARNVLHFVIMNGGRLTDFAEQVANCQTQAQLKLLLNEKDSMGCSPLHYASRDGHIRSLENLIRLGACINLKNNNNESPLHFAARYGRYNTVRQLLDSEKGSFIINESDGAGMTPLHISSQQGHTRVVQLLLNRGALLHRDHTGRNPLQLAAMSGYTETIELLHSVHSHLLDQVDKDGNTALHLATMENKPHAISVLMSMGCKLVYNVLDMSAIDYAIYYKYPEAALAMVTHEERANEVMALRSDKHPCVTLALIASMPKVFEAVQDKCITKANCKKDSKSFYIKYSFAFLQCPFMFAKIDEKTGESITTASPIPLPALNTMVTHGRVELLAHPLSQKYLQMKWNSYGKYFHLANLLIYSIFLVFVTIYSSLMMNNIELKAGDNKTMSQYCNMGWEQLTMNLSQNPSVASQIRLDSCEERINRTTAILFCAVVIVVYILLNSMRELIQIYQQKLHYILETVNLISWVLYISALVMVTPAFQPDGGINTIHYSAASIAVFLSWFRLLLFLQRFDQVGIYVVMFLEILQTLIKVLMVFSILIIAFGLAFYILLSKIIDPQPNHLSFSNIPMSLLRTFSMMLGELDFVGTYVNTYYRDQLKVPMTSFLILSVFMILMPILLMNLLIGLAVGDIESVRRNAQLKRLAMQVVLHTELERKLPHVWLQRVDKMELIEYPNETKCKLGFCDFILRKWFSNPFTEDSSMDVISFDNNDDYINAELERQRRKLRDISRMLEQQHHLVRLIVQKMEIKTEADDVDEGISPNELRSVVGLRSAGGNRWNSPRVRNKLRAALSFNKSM

[3] = biological target: T3, TRPA1(A)10b (Drosophila melanogaster, UniProt H0USS9)
T3 construct: full-length splice isoform, TrpA1 cRNA injected in Xenopus laevis oocytes
T3 sequence (H0USS9 1-1231): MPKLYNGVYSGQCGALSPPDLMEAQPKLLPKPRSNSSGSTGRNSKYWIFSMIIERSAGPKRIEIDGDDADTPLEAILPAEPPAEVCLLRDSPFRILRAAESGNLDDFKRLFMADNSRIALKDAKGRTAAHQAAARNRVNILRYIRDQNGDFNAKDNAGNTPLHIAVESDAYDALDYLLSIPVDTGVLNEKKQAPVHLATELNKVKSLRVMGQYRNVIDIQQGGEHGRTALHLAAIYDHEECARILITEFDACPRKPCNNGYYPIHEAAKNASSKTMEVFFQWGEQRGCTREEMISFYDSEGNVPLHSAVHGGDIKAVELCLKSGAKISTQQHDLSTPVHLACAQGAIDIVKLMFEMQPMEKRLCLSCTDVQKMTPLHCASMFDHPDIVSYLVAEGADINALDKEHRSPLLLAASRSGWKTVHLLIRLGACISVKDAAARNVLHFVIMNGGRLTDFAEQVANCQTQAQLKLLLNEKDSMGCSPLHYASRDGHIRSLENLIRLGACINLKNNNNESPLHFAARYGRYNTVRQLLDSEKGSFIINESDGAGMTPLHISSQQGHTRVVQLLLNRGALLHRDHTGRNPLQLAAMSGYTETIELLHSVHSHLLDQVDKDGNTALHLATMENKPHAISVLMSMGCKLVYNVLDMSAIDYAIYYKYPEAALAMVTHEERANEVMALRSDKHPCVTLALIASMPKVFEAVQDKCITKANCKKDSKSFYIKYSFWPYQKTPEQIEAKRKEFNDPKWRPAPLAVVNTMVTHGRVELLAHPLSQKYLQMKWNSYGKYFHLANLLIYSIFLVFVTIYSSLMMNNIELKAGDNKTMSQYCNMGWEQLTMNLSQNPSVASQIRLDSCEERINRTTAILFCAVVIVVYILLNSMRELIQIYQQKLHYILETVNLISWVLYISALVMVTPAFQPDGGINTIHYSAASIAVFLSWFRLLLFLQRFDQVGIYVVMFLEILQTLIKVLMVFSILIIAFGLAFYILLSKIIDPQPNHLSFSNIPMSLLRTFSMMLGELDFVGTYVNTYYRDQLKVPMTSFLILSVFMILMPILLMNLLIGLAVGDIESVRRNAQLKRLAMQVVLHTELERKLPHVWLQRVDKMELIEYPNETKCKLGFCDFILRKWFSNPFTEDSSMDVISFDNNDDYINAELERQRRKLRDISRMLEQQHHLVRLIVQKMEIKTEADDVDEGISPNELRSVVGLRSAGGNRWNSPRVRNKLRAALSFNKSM
From the text: two-electrode voltage clamp, Xenopus oocytes, Hill fit on TRPA1(A)10b | The data were fitted to Hill equation to determine EC50s

[4] = biological target: T4, TRPA1(A)10a (Drosophila melanogaster, UniProt G8IQ59)
T4 construct: full-length splice isoform, TrpA1 cRNA injected in Xenopus laevis oocytes
T4 sequence (G8IQ59 1-1232): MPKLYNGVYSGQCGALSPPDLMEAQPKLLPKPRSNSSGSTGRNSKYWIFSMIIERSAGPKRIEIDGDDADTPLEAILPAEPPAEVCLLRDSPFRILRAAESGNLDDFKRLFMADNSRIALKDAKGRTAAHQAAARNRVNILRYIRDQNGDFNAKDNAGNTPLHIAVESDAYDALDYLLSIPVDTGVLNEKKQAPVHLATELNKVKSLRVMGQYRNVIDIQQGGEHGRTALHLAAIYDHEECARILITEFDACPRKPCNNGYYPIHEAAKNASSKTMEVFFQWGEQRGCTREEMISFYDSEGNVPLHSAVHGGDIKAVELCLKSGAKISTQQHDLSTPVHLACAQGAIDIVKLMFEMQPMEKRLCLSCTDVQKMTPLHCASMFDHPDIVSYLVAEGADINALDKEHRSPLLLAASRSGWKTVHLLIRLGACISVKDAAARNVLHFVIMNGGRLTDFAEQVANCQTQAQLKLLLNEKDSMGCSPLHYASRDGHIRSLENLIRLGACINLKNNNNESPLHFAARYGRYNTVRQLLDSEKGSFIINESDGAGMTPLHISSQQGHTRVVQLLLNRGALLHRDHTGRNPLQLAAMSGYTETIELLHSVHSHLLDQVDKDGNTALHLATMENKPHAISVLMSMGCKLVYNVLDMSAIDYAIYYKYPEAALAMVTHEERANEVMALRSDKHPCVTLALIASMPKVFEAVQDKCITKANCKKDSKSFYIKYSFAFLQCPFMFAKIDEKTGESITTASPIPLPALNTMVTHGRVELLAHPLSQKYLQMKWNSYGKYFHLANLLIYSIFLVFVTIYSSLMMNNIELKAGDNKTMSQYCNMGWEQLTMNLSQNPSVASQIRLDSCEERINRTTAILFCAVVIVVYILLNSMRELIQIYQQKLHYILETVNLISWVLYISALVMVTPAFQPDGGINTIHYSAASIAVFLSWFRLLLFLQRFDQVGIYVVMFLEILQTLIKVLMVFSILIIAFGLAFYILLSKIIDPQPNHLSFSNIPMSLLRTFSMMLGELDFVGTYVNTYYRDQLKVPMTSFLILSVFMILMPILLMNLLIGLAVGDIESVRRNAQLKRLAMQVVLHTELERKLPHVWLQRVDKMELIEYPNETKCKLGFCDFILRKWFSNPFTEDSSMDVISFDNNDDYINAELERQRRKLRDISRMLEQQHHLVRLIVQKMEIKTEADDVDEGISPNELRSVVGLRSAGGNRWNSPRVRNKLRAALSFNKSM

Compound `OCl` [NaOCl] has an EC50 [1] of 21.1±3.6 ppm, an EC50 [2] of 13.2±1.0 ppm and an EC50 [3] of 1.7±0.7 ppm. It also gave an EC50 [4] of 5.7±0.6 ppm.
